The source of these data is US7205382B2, “Peptides, the production and use thereof for binding immunoglobulins” (Fresenius Medical Care Affina GmbH, priority 2000, dated 2007).

Bridge positions count the residues as written; N and C are the ends. Square brackets hold non-standard residues; d marks the D form. Ends that are not written are not given here. cellulose = not defined here; βAla = NCCC(=O)O

Assay type in all cases: binding
Common to all, as to design: key: No binding of immunoglobulin for the defined peptide variant, detection negative: 0; Binding of immunoglobulin for the defined peptide variant, detection positive: +

The test system of one experiment is human IgG-Fc. Briefly: Cellulose-immobilized 13-mer peptide variants incubated with human IgG-Fc, anti-human IgG-AP detection. The settings on record: IgG-Fc 1 μg/ml in blocking buffer, 3 h room temperature. The procedure, abridged: (§1)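 SPOT-type 13-mer peptides on cellulose with a (βA)(βA) spacer, blocked in 5% saccharose/4% BSA in T-TBS pH 8.0. Incubated 3 h at RT with human IgG-Fc (1 μg/ml) or human serum/plasma (1:10,000), or with blocking buffer alone as the albumin specificity control. Bound IgG detected with AP-anti-human IgG (1.2 μg/ml) and NBT/BCIP colorimetric development at pH 9.5.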

In another experiment the test system is serum albumin. Briefly: Cellulose-immobilized 13-mer peptide variants incubated with serum albumin (negative control), anti-human IgG-AP detection. The note with it: blocking buffer without addition, 3 h room temperature. The method in brief:
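Peptides on cellulose via a (βA)(βA) spacer were blocked in T-TBS (pH 8.0) with 5% saccharose and 4% BSA, then exposed for 3 h at room temperature to IgG-Fc (1 μg/ml), serum diluted 1:10,000, or blocking buffer alone. Bound IgG was detected with AP-anti-human IgG (1.2 μg/ml) and NBT/BCIP colour development.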

For experiment [1], the system named is immunoglobulins in human plasma. Briefly: Cellulose-immobilized 13-mer peptide variants incubated with human plasma, anti-human IgG-AP detection. The settings on record: human plasma as sample, diluted 1:10,000 in blocking buffer, 3 h room temperature. The procedure, abridged: as §1

For the substance “09F: cellulose-bound 13-mer variant DCAWHLGEFVWCT-(βA)(βA) (DCAWHLGEFVWCT-{βAla-βAla-cellulose}; disulfide 2-12 (inferred); reading uncertain; also: printed as DCAWHLGEFVWCT-(βA)(βA))”, in the experiment on human IgG-Fc, the “Result for incubation with human IgG-Fc (immunoglobulin binding detection)” value (“Result for incubation with human IgG-Fc” for short) was 0. In the experiment on serum albumin, the “Result for incubation with serum albumin (immunoglobulin binding detection)” value (from here on “Result for incubation with serum albumin”) turned out to be 0. In addition, in experiment [1], the “Result for incubation with human plasma (immunoglobulin binding detection)” value (shortened to “Result for incubation with human plasma”) was found to be 0.

As for “11Q: cellulose-bound 13-mer variant DCAWHLGELVQCT-(βA)(βA)”, in the experiment on human IgG-Fc, the “Result for incubation with human IgG-Fc” value came out at 0. For the same substance, the “Result for incubation with serum albumin” value in the experiment with serum albumin was 0. Besides, the “Result for incubation with human plasma” value in experiment [1] stood at 0.

Consider “12D: cellulose-bound 13-mer variant DCAWHLGELVWDT-(βA)(βA) (DCAWHLGELVWDT-{βAla-βAla-cellulose}; not fully specified; printed as DCAWHLGELVWDT-(βA)(βA); reading uncertain)”, for which the “Result for incubation with human IgG-Fc” value with human IgG-Fc was determined as 0. Also, the “Result for incubation with serum albumin” value in the experiment on serum albumin is on record as 0. For the same substance, in experiment [1], the “Result for incubation with human plasma” value is 0.

As for “01I: cellulose-bound 13-mer variant ICAWHLGELVWCT-(βA)(βA) (ICAWHLGELVWCT-{βAla-βAla-cellulose}; disulfide 2-12 (inferred); reading uncertain; also: printed as ICAWHLGELVWCT-(βA)(βA))”, the “Result for incubation with human IgG-Fc” value in the experiment with human IgG-Fc stood at 0. Also, the “Result for incubation with serum albumin” value with serum albumin amounted to 0. Further, in experiment [1], the “Result for incubation with human plasma” value is reported as 0.

In the case of “06C: cellulose-bound 13-mer variant DCAWHCGELVWCT-(βA)(βA) (DCAWHCGELVWCT[βAla][βAla]; not fully specified (N-terminus); printed as DCAWHCGELVWCT-(βA)(βA); cysteine pairing not given here; also: cellulose-bound)”, the “Result for incubation with human IgG-Fc” value in the experiment on human IgG-Fc is listed as 0. The “Result for incubation with serum albumin” value in the experiment with serum albumin stood at 0. In addition, the “Result for incubation with human plasma” value in experiment [1] is reported as 0.

“01V: cellulose-bound 13-mer variant VCAWHLGELVWCT-(βA)(βA) (VCAWHLGELVWCT-{βAla-βAla-cellulose}; disulfide 2-12 (inferred); reading uncertain; also: printed as VCAWHLGELVWCT-(βA)(βA))”: the “Result for incubation with human IgG-Fc” value in the experiment with human IgG-Fc came to 0. Further, the “Result for incubation with serum albumin” value with serum albumin was 0. Also, in experiment [1], the “Result for incubation with human plasma” value amounted to 0.

As for “08C: cellulose-bound 13-mer variant DCAWHLGCLVWCT-(βA)(βA) (DCAWHLGCLVWCT-{βAla-βAla-cellulose}; not fully specified (N-terminus); printed as DCAWHLGCLVWCT-(βA)(βA); cysteine pairing not given here; reading uncertain)”, in the experiment with human IgG-Fc, the “Result for incubation with human IgG-Fc” value is recorded as 0. Besides, the “Result for incubation with serum albumin” value in the experiment with serum albumin was found to be 0. In experiment [1], the “Result for incubation with human plasma” value is listed as 0.

In the case of “11I: cellulose-bound 13-mer variant DCAWHLGELVICT-(βA)(βA)”, the “Result for incubation with human IgG-Fc” value in the experiment on human IgG-Fc is on record as 0. For the same substance, in the experiment on serum albumin, the “Result for incubation with serum albumin” value came to 0. Moreover, in experiment [1], the “Result for incubation with human plasma” value came out at 0.

In the case of “02A: cellulose-bound 13-mer variant DAAWHLGELVWCT-(βA)(βA) (DAAWHLGELVWCT[βAla][βAla]; not fully specified; printed as DAAWHLGELVWCT-(βA)(βA); also: cellulose-bound)”, in the experiment with human IgG-Fc, the “Result for incubation with human IgG-Fc” value turned out to be 0. The “Result for incubation with serum albumin” value in the experiment with serum albumin is recorded as 0. Besides, the “Result for incubation with human plasma” value in experiment [1] is given as 0.

Turning to “03T: cellulose-bound 13-mer variant DCTWHLGELVWCT-(βA)(βA) (DCTWHLGELVWCT-{βAla-βAla-cellulose}; disulfide 2-12 (inferred); reading uncertain; also: printed as DCTWHLGELVWCT-(βA)(βA))”, the “Result for incubation with human IgG-Fc” value in the experiment on human IgG-Fc was “+”. Also, the “Result for incubation with serum albumin” value in the experiment with serum albumin worked out at 0. Moreover, the “Result for incubation with human plasma” value in experiment [1] is reported as “+”.

For the substance “01Y: cellulose-bound 13-mer variant YCAWHLGELVWCT-(βA)(βA) (YCAWHLGELVWCT-{βAla-βAla-cellulose}; disulfide 2-12 (inferred); reading uncertain; also: printed as YCAWHLGELVWCT-(βA)(βA))”, in the experiment with human IgG-Fc, the “Result for incubation with human IgG-Fc” value was 0. Further, the “Result for incubation with serum albumin” value in the experiment on serum albumin stood at 0. Also, in experiment [1], the “Result for incubation with human plasma” value is 0.

Regarding “10E: cellulose-bound 13-mer variant DCAWHLGELEWCT-(βA)(βA) (DCAWHLGELEWCT-{βAla-βAla-cellulose}; disulfide 2-12 (inferred); reading uncertain; also: printed as DCAWHLGELEWCT-(βA)(βA))”, in the experiment on human IgG-Fc, the “Result for incubation with human IgG-Fc” value amounted to 0. For the same substance, in the experiment on serum albumin, the “Result for incubation with serum albumin” value stood at 0. Also, the “Result for incubation with human plasma” value in experiment [1] turned out to be 0.

As to “11E: cellulose-bound 13-mer variant DCAWHLGELVECT-(βA)(βA) (DCAWHLGELVECT-{βAla-βAla-cellulose}; disulfide 2-12 (inferred); reading uncertain; also: printed as DCAWHLGELVECT-(βA)(βA))”, in the experiment with human IgG-Fc, the “Result for incubation with human IgG-Fc” value was determined as 0. The “Result for incubation with serum albumin” value in the experiment with serum albumin is listed as 0. Also, the “Result for incubation with human plasma” value in experiment [1] amounted to 0.

Take “01Q: cellulose-bound 13-mer variant QCAWHLGELVWCT-(βA)(βA) (QCAWHLGELVWCT-{βAla-βAla-cellulose}; disulfide 2-12 (inferred); reading uncertain; also: printed as QCAWHLGELVWCT-(βA)(βA))”: the “Result for incubation with human IgG-Fc” value in the experiment on human IgG-Fc is reported as “+”. Moreover, the “Result for incubation with serum albumin” value in the experiment on serum albumin is 0. Further, the “Result for incubation with human plasma” value in experiment [1] is 0.

As to “09P: cellulose-bound 13-mer variant DCAWHLGEPVWCT-(βA)(βA) (DCAWHLGEPVWCT-{βAla-βAla-cellulose}; disulfide 2-12 (inferred); reading uncertain; also: printed as DCAWHLGEPVWCT-(βA)(βA))”, the “Result for incubation with human IgG-Fc” value in the experiment on human IgG-Fc is reported as “+”. In the experiment on serum albumin, the “Result for incubation with serum albumin” value is 0. In experiment [1], the “Result for incubation with human plasma” value is 0.

Consider “09Q: cellulose-bound 13-mer variant DCAWHLGEQVWCT-(βA)(βA) (DCAWHLGEQVWCT-{βAla-βAla-cellulose}; disulfide 2-12 (inferred); reading uncertain; also: printed as DCAWHLGEQVWCT-(βA)(βA))”, for which, in the experiment with human IgG-Fc, the “Result for incubation with human IgG-Fc” value is on record as “+”. In the experiment with serum albumin, the “Result for incubation with serum albumin” value is 0. Also, in experiment [1], the “Result for incubation with human plasma” value amounted to 0.

In the case of “11N: cellulose-bound 13-mer variant DCAWHLGELVNCT-(βA)(βA)”, in the experiment with human IgG-Fc, the “Result for incubation with human IgG-Fc” value worked out at 0. In the experiment with serum albumin, the “Result for incubation with serum albumin” value came out at 0. In experiment [1], the “Result for incubation with human plasma” value was determined as 0.

As to “03M: cellulose-bound 13-mer variant DCMWHLGELVWCT-(βA)(βA) (DCMWHLGELVWCT-{βAla-βAla-cellulose}; disulfide 2-12 (inferred); reading uncertain; also: printed as DCMWHLGELVWCT-(βA)(βA))”, the “Result for incubation with human IgG-Fc” value with human IgG-Fc was found to be 0. Besides, the “Result for incubation with serum albumin” value in the experiment with serum albumin was determined as 0. In addition, the “Result for incubation with human plasma” value in experiment [1] worked out at 0.

In the case of “06P: cellulose-bound 13-mer variant DCAWHPGELVWCT-(βA)(βA) (DCAWHPGELVWCT-{βAla-βAla-cellulose}; disulfide 2-12 (inferred); not fully specified (N-terminus); printed as DCAWHPGELVWCT-(βA)(βA); reading uncertain)”, in the experiment on human IgG-Fc, the “Result for incubation with human IgG-Fc” value came to 0. The “Result for incubation with serum albumin” value with serum albumin was found to be 0. The “Result for incubation with human plasma” value in experiment [1] is 0.

For the substance “03W: cellulose-bound 13-mer variant DCWWHLGELVWCT-(βA)(βA) (DCWWHLGELVWCT-{βAla-βAla-cellulose}; disulfide 2-12 (inferred); reading uncertain; also: printed as DCWWHLGELVWCT-(βA)(βA))”, in the experiment with human IgG-Fc, the “Result for incubation with human IgG-Fc” value was found to be 0. Also, in the experiment on serum albumin, the “Result for incubation with serum albumin” value turned out to be 0. The “Result for incubation with human plasma” value in experiment [1] came to 0.
